# From patent US8759481B2, “Peptide vaccines for cancers expressing tumor-associated antigens” (Oncotherapy Science, Inc., priority 2007, dated 2014)
# Entries after “also recorded” stand apart in the source; their conditions may differ. Ends that are not written are not given here.
# Columns and labels:
# Type in all cases: cell-based, human
# A498 cancer cell line = assay: 51Cr release cytotoxicity assay; conditions: A498 expressing only HIG2
# Procedure: (§1) Cytotoxic activity was evaluated by a four-hour ^51Cr release assay. The target cells were pulsed with a 20 micro g/mL concentration of peptide overnight. The target cells were labeled with 100 micro Ci of Na2^51CrO4 at 37 degrees C. for one hour, and then washed three times with RPMI1640. The target cells (1×10^4/100 micro L) and 100 micro L of effector cells at various numbers with a total volume of 200 micro L were placed into a round-bottomed 96-well microtiter plate (Corning), and cultured at 37 degrees C. in a CO2 incubator for four hours. After culturing, 100 micro L of the supernatant was collected from each well, and measured the radioactivity using a gamma counter. Spontaneous release was the radioactivity from the target cells with medium in the absence of effector cells, and maximum release was the radioactivity from the target cells with 1 M HCl.
# (§2) The Percentage of specific cytotoxicity was determined by calculating as following formula: % Specific lysis=[(experimental release−spontaneous release)/(maximum release−spontaneous release)]×100. Results Enhanced CDH3, EPHA4, ECT2, HIG2, INHBB, KIF20A, KNTC2, TTK and URLC10 Expression in Cancers
# (§3) Furthermore, Cytotoxic activity was examined by cytotoxicity assay according to the protocols set forth in the “Materials and Methods” section above.
# Caki-1 cancer cell line = assay: 51Cr release cytotoxicity assay; conditions: Caki-1 endogenously expressing HIG2 and HLA-A02; listed as HIG2-A02-9-4
# Procedure: as §1, §2, §3
# [1] = system: 293T transfected with HIG2 gene and/or HLA-A02; assay: 51Cr release cytotoxicity assay
# Description: (§4) The cDNA encoding an open reading frame of target genes or HLA-A02 or HLA-A24 was amplified by PCR. The PCR-amplified product was cloned into pcDNA3.1 myc-His vector (Invitrogen). The plasmids were transfected into the target cells, HLA-A02 and HLA-A24-null normal human cell line COS7 or 293T using lipofectamine (Invitrogen) according to the manufacturer's recommended procedures. Alternatively, the plasmid contained the target genes were transfected into A24-LCL by electroporation using GenePulserII (Biorad). Briefly, 2.5×10^6 A24-LCL cells were pulsed with 10 mcg prasmid at 140V and 1000 micro F. After 2 days from transfection, the transfected cells were treated with Cell dissociation solution and used as the target cells for CTL activity assay.
# Cytotoxic activity was evaluated by a four-hour ^51Cr release assay. […] After culturing, 100 micro L of the supernatant was collected from each well, and measured the radioactivity using a gamma counter. Spontaneous release was the radioactivity from the target cells with medium in the absence of effector cells, and maximum release was the radioactivity from the target cells with 1 M HCl.
# The Percentage of specific cytotoxicity was determined by calculating as following formula: % Specific lysis=[(experimental release−spontaneous release)/(maximum release−spontaneous release)]×100. […]
# peptide-pulsed T2 cells [2] = assay: CTL line establishment, IFN-gamma ELISA; conditions: HLA-A02 peptides; vs target without peptide pulse
# Method in brief: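 CTLs expanded with MMC-inactivated B-lymphoblastoid lines, 40 ng/ml anti-CD3 and IL-2 (120 IU/ml day 1, then 30 IU/ml on days 5, 8, 11). Peptide-pulsed T2 or A24-LCL stimulators (1×10^4/well) incubated with cultured wells or limiting-dilution clones as responders; IFN-gamma detected by ELISPOT (positive wells) and ELISA (established CTL lines).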
# [3] = system: COS7, Hek293 and 293T transfected with full length URLC10 gene and HLA-A*0201; assay: Specific CTL activity against transfected target cells; conditions: vs control transfectants; listed as URLC10-A02-10-211
# Procedure: (§5) Briefly, peptide-pulsed A24-LCL or T2 cell (1×10^4/well) was prepared as stimulator cells. Cultured Cells in 48 wells or CTL clones after limiting dilution were used as responder cells. IFN-gamma ELISPOT assay and ELISA assay were performed under manufacture procedure.
# as §4
# The established CTL line raised against these peptides were examined for their ability to recognize the target cells endogenously expressing URLC10 and HLA-A*0201. […]
# peptide-pulsed T2 cells [4] = assay: IFN-gamma ELISPOT assay (positive wells); conditions: HLA-A02 peptides; as compared to the control
# Method in brief: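 CD8+ T cells from HLA-A*2402 and/or HLA-A*0201 donors were stimulated 1:20 with autologous monocyte-derived DCs pulsed with 20 µg/ml peptide plus β2-microglobulin, in IL-7, with IL-2 added, restimulated on days 7 and 14. On day 21, IFN-γ ELISPOT against peptide-pulsed T2 or A24-LCL cells (1×10^4/well) scored wells as positive, with CTL lines confirmed by ELISA.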
# [5] = system: peptide-pulsed A24-LCL cells; assay: IFN-gamma ELISPOT assay (positive wells); conditions: HLA-A24 peptides; as compared to the control
# Method in brief: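 PBMC-derived DCs from HLA-A*2402 and/or A*0201 donors, pulsed with 20 micro g/ml peptide plus 3 micro g/ml beta 2-microglobulin, stimulated autologous CD8+ T cells three times (days 0, 7, 14). On day 21, responders were tested against peptide-pulsed A24-LCL or T2 cells by IFN-gamma ELISPOT. Values are reported as positive wells/wells tested; CTL lines confirmed by ELISA.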
# [6] = system: HEK293 transfected with full length KNTC2 gene and HLA-A*2402; assay: Specific CTL activity against transfected target cells; conditions: vs control transfectants; listed as KNTC2-A24-10-452
# Procedure: as §5, §4
# The established CTL line raised against these peptides were examined for their ability to recognize the target cells expressing KNTC2 and HLA-A*2402. […] HEK293 transfected with full length KNTC2 but not HLA-A*2402, HEK293 transfected with HLA-A*2402 but not full length KNTC2 and HEK293 transfected with HLA-A*2402 and pulsed with KNTC2-9-309 were prepared as controls.
# [7] = system: peptide-pulsed A24-LCL cells; assay: CTL clones by limiting dilution, specific CTL activity; conditions: HLA-A24 peptides; vs target without peptide pulse
# Method in brief: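 CTLs cloned by limiting dilution at 0.3, 1 and 3 cells/well with two B-lymphoblastoid lines, 30 ng/ml anti-CD3 and 125 U/ml IL-2, IL-2 re-added at day 10; activity tested day 14. Responders stimulated by peptide-pulsed A24-LCL or T2 cells (1×10^4/well); IFN-gamma read by ELISPOT and ELISA.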
# [8] = system: peptide-pulsed A24-LCL cells; assay: CTL line establishment, IFN-gamma ELISA; conditions: HLA-A24 peptides; vs target without peptide pulse
# Method in brief: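 CTL lines were expanded with MMC-inactivated B-lymphoblastoid feeders, 40 ng/ml anti-CD3 and IL-2 in AIM-V/5% AS. IFN-gamma ELISPOT identified specific wells, and ELISA determined established lines, using responders stimulated by peptide-pulsed A24-LCL or T2 cells at 1×10^4/well.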
substance,measurement,setting,value
"VLNLYLLGV [SEQ ID NO: 117, VLNLYLLGV]",Cytotoxic activity against A498 (Cr-release assay),A498 cancer cell line,did not demonstrate the cytotoxic activity
same,Cytotoxic activity against Caki-1 (Cr-release assay),Caki-1 cancer cell line,remarkably high cytotoxic effect; also recorded: very potent cytotoxic activity
same,Cytotoxic activity against 293T transfected with both HIG2 gene and HLA-A02 (Cr-release assay),[1],very potent cytotoxic activity
same,Cytotoxic activity against 293T transfected only HIG2 or only HLA-A02 (Cr-release assay),[1]; control transfectants,did not demonstrate the cytotoxic activity
SEQ ID NO: 288: HLA-A*0201 binding 10-mer peptide derived from URLC10 (LLLASIAAGL),"Establishment of CTL line, specific CTL activity against the peptide-pulsed target determined by ELISA",peptide-pulsed T2 cells [2],"CTL line and clones, were established"
same,"Specific CTL activity against COS7, Hek293 and 293T transfected with both URLC10 and HLA-A02",[3],highest specific CTL activity; also recorded: high specific CTL activity
same,IFN-gamma production by IFN-gamma ELISPOT assay,peptide-pulsed T2 cells [4],potent IFN-gamma production
SEQ ID NO: 214: HLA-A*2402 binding 10-mer peptide derived from KNTC2 (KYRAQVYVPL),IFN-gamma production by IFN-gamma ELISPOT assay,[5],potent IFN-gamma production
same,Specific CTL activity against HEK293 transfected with both KNTC2 and HLA-A24,[6],highest specific CTL activity
same,CTL activities of CTL clones against the peptide-pulsed target,[7],potent and specific CTL activities
same,"Establishment of CTL line, specific CTL activity against the peptide-pulsed target determined by ELISA",[8],CTL lines were established
